Converted amounts (≈) assume the structure as drawn.

A short description of data set [1]: logD shake flask, 1-octanol/aqueous buffer. Type of data set: physicochemical. The following applies: pH 7.4. From the text: The lipophilicity of a drug is an important physical property which may influence many biological and metabolic properties of a compound. The distribution coefficient between 1-octanol and aqueous buffer, Log DO/W, at pH 7.4, is the most commonly used measurement of the lipophilicity of a compound. The current method for measurement of Log DO/W is based on the traditional shake flask technique, but with the modification of measuring compounds in mixtures of ten at a time using UPLC with quantitative mass spectrometry (MS) as a method to measure the relative octanol and aqueous concentrations. […] An additional QC sample Caffeine, with low Log D, are used and randomly placed in all runs. The method has been thoroughly validated against the previous shake flask methodologies.

Data set [2] in a line: Thermodynamic solubility, shake-flask. Conditions: thermodynamic from solid; aqueous phosphate buffer pH 7.4, 24 hours at 25° C. Format: physicochemical. The procedure: The thermodynamic solubility of a research compound is measured under standard conditions. It is a shake-flask approach that uses 10 mM DMSO solutions which are supplied from the Compound Managements liquid store and is a high throughput method. The dried compounds are equilibrated in an aqueous phosphate buffer (pH 7.4) for 24 hours at 25° C., the portion with the dissolved compound is then separated from the remains. The solutions are analyzed and quantified using UPLC/MS/MS, QC-samples are incorporated in each assay-run to ensure the quality of the assay.

Data set [3] deals with estrogen receptor (ERα) in MCF-7 human breast cancer cell line (Homo sapiens (Human), UniProt P03372). Description: Western blotting assay, MCF-7 cells. Conditions: 100 nM compound, 48 h; normalised to vehicle (0%) and 100 nM fulvestrant (100%). Type of data set: cell-based. The procedure: (§1) The ability of compounds to down-regulate estrogen receptor (ER) was assessed by western blotting using human breast cancer cell lines (MCF-7 and CAMA-1). Cells were plated into 12-well tissue culture-treated plates at 0.5×10^6/well in phenol red-free RPMI containing 2 mM L-glutamine and 5% (v/v) charcoal treated foetal calf serum (F6765, Sigma). Cells were incubated with compounds (100 nM) or vehicle control (0.1% DMSO) for 48 h at 37° C., 5% CO2 before washing once with PBS and lysing with 80 μl lysis buffer (25 mM Tris/HCl, 3 mM EDTA, 3 mM EGTA, 50 mM NaF, 2 mM sodium orthovanadate, 0.27 M sucrose, 10 mM β-glycerophosphate, 5 mM sodium pyrophosphate, 0.5% TritonX-100, pH 6.8) on ice.
(§2) Cells were scraped, sonicated and centrifuged prior to performing a protein assay (DC Bio-Rad Protein kit, 500-0116) and making samples to a protein concentration of 1-2 mg/m1 in lysis buffer containing 1× LDS Sample Buffer (NP0007, Invitrogen) and 1× NuPAGE sample reducing agent (NP0009, Invitrogen). Samples were boiled for 10 min at 95° C. and then frozen at −20° C. until ready for use.
(§3) 10-20 μg protein was loaded onto 26-well Criterion gels (BioRad 345-0034). Gels were run at 125 V for 1 hr 25 min in running buffer (24 mM Tris Base Sigma, 192 mM Glycine, 3.5 mM SDS, made up in distilled water). Gels were then transferred at 30V for 2 hr in transfer buffer (25 mM Tris, 192 mM Glycine, 20% (v/v) methanol, pH 8.3, made up in distilled water) onto nitrocellulose membrane. The blot was stained with Ponceau S (P7170, Sigma) and cut according to appropriate molecular weight markers.
(§4) Membranes were blocked for 1 hour at room temp in 5% Marvel (w/v) in phosphate-buffered saline containing 0.05% Tween™ 20 (PBS/Tween). Blots were then incubated with anti-ERα (SP1) rabbit monoclonal antibody (Thermofisher) diluted 1:1000 at 4° C. overnight (with gentle shaking) followed by several washes with PBS/Tween. Secondary anti-rabbit HRP antibody (7074, CST) diluted 1:2000 dilution was incubated for 2 h at room temperature (with gentle shaking) followed by several washes with PBS/Tween. All antibodies were made up in 5% Marvel (w/v) in PBS/Tween.
(§5) The immunoblots were developed using Pierce WestDura chemiluminescent reagents (Thermo Scientific 34076) and developed/quantified on the G-box using Syngene software. Down-regulation of the ERα receptor was normalised to the vehicle control (0% down-regulation) and the 100 nM fulvestrant control (100% down-regulation) run within the same gel.
For orientation: A western blot detects proteins with antibodies after separation by electrophoresis.

Data set [4] has as its target estrogen receptor (ERα) in CAMA-1 human breast cancer cell line (Homo sapiens (Human), UniProt P03372). Description: Western blotting assay, CAMA-1 cells. Format: cell-based. The following applies: 100 nM compound, 48 h; normalised to vehicle (0%) and 100 nM fulvestrant (100%). The procedure:
as §1, §2, §3, §4, §5

estrogen receptor (ERα) in MCF-7 human breast cancer cell line, sequence (P03372 whole entry): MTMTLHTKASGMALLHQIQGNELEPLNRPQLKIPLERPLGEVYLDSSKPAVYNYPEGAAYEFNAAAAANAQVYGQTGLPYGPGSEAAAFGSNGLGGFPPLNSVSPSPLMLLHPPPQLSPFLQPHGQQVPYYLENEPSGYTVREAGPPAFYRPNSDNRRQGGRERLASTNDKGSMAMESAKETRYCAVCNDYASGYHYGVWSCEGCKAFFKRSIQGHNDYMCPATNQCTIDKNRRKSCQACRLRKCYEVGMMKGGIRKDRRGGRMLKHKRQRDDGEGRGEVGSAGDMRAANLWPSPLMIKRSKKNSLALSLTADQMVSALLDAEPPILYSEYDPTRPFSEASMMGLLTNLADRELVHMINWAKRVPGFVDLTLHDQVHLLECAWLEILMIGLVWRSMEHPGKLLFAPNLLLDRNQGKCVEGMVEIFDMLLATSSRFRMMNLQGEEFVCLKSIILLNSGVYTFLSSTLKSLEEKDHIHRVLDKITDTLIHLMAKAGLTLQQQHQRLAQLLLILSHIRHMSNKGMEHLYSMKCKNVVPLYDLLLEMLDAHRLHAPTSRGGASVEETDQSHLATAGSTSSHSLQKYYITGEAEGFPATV
estrogen receptor (ERα) in CAMA-1 human breast cancer cell line, sequence (P03372 whole entry): as above

For `COc1cc(OCCN2CC(CF)C2)ccc1[C@@H]1c2ccc3[nH]ncc3c2C[C@@H](C)N1CC1(F)CC1` [Example 6, (6S,8R)-7-((1-fluorocyclopropyl)methyl)-6-(4-(2-(3-(fluoromethyl)azetidin-1-yl)ethoxy)-2-methoxyphenyl)-8-methyl-6,7,8,9-tetrahydro-3H-pyrazolo[4,3-f]isoquinoline], the logD (usually lipophilicity at a set pH, counting ionised and neutral species) in data set [1] was 2.8. For the same compound, in data set [2], the solubility (in general, the dissolved amount per volume that the medium holds) at 24 h is 957 µM (≈ 475 µg/mL). In data set [3], the “MCF7 Western % ER deg vs Fv” value is 77%. The “CAMA1 Western % ER deg vs Fv” value in data set [4] amounted to 87%.

On to `COc1cc(OCCN2CC(CF)C2)ccc1[C@@H]1c2ccc3[nH]ncc3c2C[C@@H](C)N1CC(C)C` [Example 9, (6S,8R)-6-(4-(2-(3-(fluoromethyl)azetidin-1-yl)ethoxy)-2-methoxyphenyl)-7-isobutyl-8-methyl-6,7,8,9-tetrahydro-3H-pyrazolo[4,3-f]isoquinoline], for which the logD in data set [1] worked out at 2.4. The solubility at 24 h in data set [2] was above 1000 µM. For the same compound, in data set [3], the “MCF7 Western % ER deg vs Fv” value is 97%. In addition, the “CAMA1 Western % ER deg vs Fv” value in data set [4] was found to be 81%.

In data set [1], `C[C@@H]1Cc2c(ccc3[nH]ncc23)[C@@H](c2ccc(OCCN3CC(CF)C3)cn2)N1CC(F)F` [Example 51, (6S,8R)-7-(2,2-difluoroethyl)-6-(5-(2-(3-(fluoromethyl)azetidin-1-yl)ethoxy)pyridin-2-yl)-8-methyl-6,7,8,9-tetrahydro-3H-pyrazolo[4,3-f]isoquinoline] had a logD of 2.4. This compound gave a solubility at 24 h in data set [2] of 974 µM (≈ 448 µg/mL). Also, the “MCF7 Western % ER deg vs Fv” value in data set [3] came to 97%. The “CAMA1 Western % ER deg vs Fv” value in data set [4] is 82%.

As for `C[C@@H]1Cc2c(ccc3[nH]ncc23)[C@@H](c2ccc(OCCN3CC(CF)C3)cn2)N1CC(F)(F)F` [Example 49, (6S,8R)-6-(5-(2-(3-(fluoromethyl)azetidin-1-yl)ethoxy)pyridin-2-yl)-8-methyl-7-(2,2,2-trifluoroethyl)-6,7,8,9-tetrahydro-3H-pyrazolo[4,3-f]isoquinoline], the logD in data set [1] worked out at 3. Moreover, the solubility at 24 h in data set [2] is above 1000 µM. Further, the “MCF7 Western % ER deg vs Fv” value in data set [3] was 98%. Besides, in data set [4], the “CAMA1 Western % ER deg vs Fv” value was 77%.

In the case of `COc1cc(OCCN2CC(CF)C2)ccc1[C@@H]1c2ccc3[nH]ncc3c2C[C@@H](C)N1CC(C)(C)F` [Example 5, (6S,8R)-7-(2-fluoro-2-methylpropyl)-6-(4-(2-(3-(fluoromethyl)azetidin-1-yl)ethoxy)-2-methoxyphenyl)-8-methyl-6,7,8,9-tetrahydro-3H-pyrazolo[4,3-f]isoquinoline], in data set [1], the logD was found to be 3.5. In data set [2], this compound displayed a solubility at 24 h of 263 µM (≈ 131 µg/mL). In addition, the “MCF7 Western % ER deg vs Fv” value in data set [3] worked out at 69%. The “CAMA1 Western % ER deg vs Fv” value in data set [4] is given as 74%.

The compound `C[C@@H]1Cc2c(ccc3[nH]ncc23)[C@@H](c2ccc(OCCN3CC(CF)C3)cn2)N1CC1(F)CC1` [Example 8, (6S,8R)-7-((1-fluorocyclopropyl)methyl)-6-(5-(2-(3-(fluoromethyl)azetidin-1-yl)ethoxy)pyridin-2-yl)-8-methyl-6,7,8,9-tetrahydro-3H-pyrazolo[4,3-f]isoquinoline] displayed a logD in data set [1] of 2.6. Also, the solubility at 24 h in data set [2] is above 1000 µM. In addition, in data set [3], the “MCF7 Western % ER deg vs Fv” value was 80%. The “CAMA1 Western % ER deg vs Fv” value in data set [4] worked out at 86%.

The values are drawn from US10125135B2, “Chemical compounds” (AstraZeneca AB, priority 2016, dated 2018).
